Test results from patent US11028127B2, “Peptides capable of reactivating p53 mutants” (Yeda Research and Development Co. Ltd., priority 2013, dated 2021).
Where no end group is shown, it is not given here. The star is where a group is joined. Myristoyl = CCCCCCCCCCCCCC(=O)*

Experiments:
Mut-p53 (R175H p53) = molecular target: T1, Mut-p53 (R175H p53) (Homo sapiens, UniProt P04637, R175H); assay: Sandwich ELISA for p53 conformation (PAb1620/PAb240 reactivity); assay type: biochemical; settings: extract of H1299 cells overexpressing R175H p53; peptide 50 ng/ml, 2 hours
T1 construct: a hot spot full length mutant p53 Mut-p53 R175H (R175H p53); expressed in transfected cells; host or cells: H1299 (p53-null) cells stably overexpressing R175H p53; cell extract
Method: To measure the conformational effect of the peptides on Mut-p53, a micro-titer plate was coated with either PAb240, PAb1620 or pAb421 (as a positive control and standard for total p53 protein, since the antibody used recognizes both WT and mutant conformations), overnight incubated, washed, blocked, and cell extracts (with or without peptides) were added for an additional 2 hours. After removal of extracts, plates were washed and incubated with the αp53-HRP conjugated Ab for the detection of p53 levels. A TMB (substrate of HRP) assay was performed and optical density was determined at 450 nm. WT p53 served as a positive control for reactivity with PAb1620, and Mut-p53 served as a negative control. The results are presented as the ratio of absorbance between the PAb1620 or PAb240 samples and the control […] sample. MCF7 and H1299-Mut-p53 (ts) A135V (TS) cells were used as positive controls for the WT p53 conformation (1620/240 ratio equals or exceeds 5:1).
96-well plates were coated using 3 different antibodies (1 type of antibody (Ab) in each well): PAb421 recognizes both conformations of p53 and binds to a C-terminus epitope; PAb240 recognizes mutant conformation of p53, binds to epitope within the core domain (amino acids 212-217) (Stephen, C. W. and D. P. Lane, Mutant conformation of p53. Precise epitope mapping using a filamentous phage epitope library. J. Mol. Biol., 1992. 225(3): p. 577-83) which is accessible to the Ab when the protein is partially denatured (for example, when the DBD is mutated); and PAb1620, which recognizes WT conformation of p53, binds to epitope with in the core domain (aa 156, 206-210), formed when folding is in WT conformation (Wang, P. L., F. Salt, and G. Winter, The ‘wild type’ conformation of p53: epitope mapping using hybrid proteins. Oncogene, 2001. 20(18): p. 2318-24).
Wells were incubated overnight (ON) with 100 μl Ab (5 μg/ml) in room temp (RT). The liquid was discarded, and the wells were washed 3 times with Phosphate buffered saline (PBS), 200 μl per each wash. Next, blocking with 200 μl of 5% bovine serum albumin (BSA) diluted in PBS in each well for 1.5 hours at room temperature (RT) was performed. Blocking buffer was discarded, followed by 3 washes in PBS as described above. Samples of mutant and WT p53 proteins (100 μl, 10 μg/ml), together with control peptides pCAP-710 (LPNPPER, SEQ ID NO:328) and pCAP-1220 ([…], SEQ ID NO:368) (5 μg/ml, Sigma Aldrich, or with test peptides 1-153 (5 μg/ml), were incubated for 1.5 hours together, and then added to the wells. Samples were rotated and incubated for 1 hour at RT. Samples were discarded, following 4 washes as described above, using Trisphosphate buffered saline (TPBS). Next, horseradish peroxidase (HRP) conjugated streptavidin p53 antibody (10 μg/ml HAF1355 (R&D)) was added to the wells and incubated at RT for 1 hour. After the plate was washed 3 times in TPBS, TMB substrate solution (50 μl each well, Thermo, (Cat. No. ES001-1L-K)) was added and incubated at 37° c. for 20 min. The reaction was stopped with 2M sulfuric acid (50 μl). The absorbance was measured at 450 nm with a spectrophotometer. Protein concentration was determined by dividing the absorbencies of each sample to the absorbance of Ab 421 samples.
The first screening strategy was based on ELISA. A version of sandwich ELISA was used to examine the effect of the lead test peptides on p53 conformation. To measure the conformational effect of the peptides on Mut-p53, a micro-titer plate was coated with PAb240, PAb1620 or pAb421 (as a positive control), and then the reactivity of p53 to these antibodies was examined. WT p53 served as a positive control for reactivity with PAb1620, and Mut-p53 served as a negative control. To examine the effect of a tested peptide it was added to a solution containing Mut-p53 and change in reactivity to either Ab was tested. […] Several ELISA experiments using different cell extracts were performed. […]

[1] = system: SW-480 colon carcinoma cells (p53 R273H and P309S); assay: Xenograft model, Preclinical Trial #3 (Table 9 experiment 3); assay type: in vivo, CD1 nude/nude mice
Method: FIGS. 21A, 21B, 21C, 21D and 21E illustrate the in vivo effect of the indicated peptides in a mouse xenograft model. SW-480 colon cancer cells expressing endogenous mutant p53 and stably expressing luciferase were injected into the left hip of CD1 nude/nude mice. When tumors reached visible size, bioluminescence (indicative of the number of cancer cells) was measured with the IVIS200 system.
After observing the highly significant result in the MDA-MB-231 experiment, additional studies were aimed to extend the observation and examine cells from a different origin, harboring a different p53 point mutation. The SW-480 colon carcinoma cell line harbors two endogenous p53 mutations: the R273H and P309S. SW-480 cells were stably infected with the luciferase reporter gene, and 10^6 cells were subcutaneously injected into nude mice. The experiment contained 15 mice that were randomly divided during the experiment into 3 groups: a control group treated with a cocktail of 3 pCAPs previously proven ineffective, a group treated with a cocktail of 3 effective pCAP (250, 308, 325) and finally a group treated with a single peptide, the pCAP-325. The duration of the SW-480 experiment was 42 days from the point of cell implantation. The time line is relative to the first day of treatment which is marked as day 0. FIGS. 21A-E show tumor growth over time in all three groups as measured by live imaging in the IVIS.
4 pre-clinical experiments have already been performed thus far, using the xenograft model of Mut-p53 expressing cells transfected with a luciferase expression vector, allowing tumor monitoring by live imaging. Two experiments were performed with MDA-MB-231 triple negative breast cancer cells (p53 R280K), one experiment used SW-480 colon cancer carcinoma cells (p53 R273H) and another experiment used SKBR3 breast cancer cells (p53 R175H). In each experiment, cells from the corresponding cell line were injected subcutaneously and allowed the formation of well-established tumors visible both by eye and by live imaging (typically 2-3 weeks). A treatment regimen was then administered, composed of intra-tumor injection of either effective lead peptides or control peptides (showing no activity in-vitro) every three days for a period of up to 42 days.

[2] = system: ES2 ovarian carcinoma cells (Mut-p53, position 241); assay: Annexin-V/PI apoptosis assay by flow cytometry; assay type: cell-based; settings: 12 ug/ml
Method: FIGS. 17A, 17B, 17C and 17D illustrate representative experiments performed on ES2 ovarian carcinoma cells expressing Mut-p53 mutated at position 241 within the DBD. […] Cells were harvested and an apoptosis assay (FIGS. 17A and 17B) was performed using the Annexin-V staining kit (Roche, REF 11 988 549 001). Non-fixed cells were stained with both anti Annexin FITC conjugated antibody to detect apoptotic cells, and PI (propidium iodide) to stain dead cells, according to the manufacturer's instructions. Stained cells were then analyzed by flow cytometry. A total of 10,000 cells was counted for each sample and divided into four sub populations according to staining intensity; cells negative for both PI and Annexin (−PI, −Annexin) are termed live; cells negative for PI and positive for Annexin (−PI, +Annexin) are going through early stages of apoptosis; cells positive for PI and Annexin (+PI, +Annexin) are dead cells that underwent an apoptotic process; and cells positive for PI and negative for Annexin (+PI, −Annexin) are assumed as dead cells that died by a non-apoptotic process such as necrosis.
FIGS. 17A and 17B illustrate a representative experiments performed on ES2 ovarian carcinoma cells (FIGS. 17A-D) expressing Mut-p53 with a mutation at positions 241 within the DBD. […] Cells were harvested, and 60% of the cells were taken for Annexin-PI apoptosis assay and 40% for extraction of RNA, cDNA synthesis and real time PCR analysis. Apoptosis was assayed using the Annexin-V staining kit (Roche, REF 11 988 549 001). Non-fixed cells were stained with both anti Annexin FITC conjugated antibody to detect apoptotic cells, and PI (propidium-iodide) to stain dead cells permeable to the compound, according to the manufacturer's instructions. Stained cells were then analyzed by flow cytometry. A total of 10,000 cells was counted for each sample and divided into four subpopulations according to staining intensity: cells negative for both PI and Annexin (−PI, −Annexin) are termed live; cells negative for PI and positive for Annexin (−PI, +Annexin) are going through early stages of apoptosis; cells positive for PI and Annexin (+PI, +Annexin) are dead cells that underwent an apoptotic process; and cells positive for PI and negative for Annexin (+PI, −Annexin) are assumed to be dead cells that died a non-apoptotic death such as necrosis. […] Treatment with pCAPs 242 and 250 causes a rapid increase in apoptotic cells followed by cell death and after 5 hours of treatment 12% of cells are Annexin positive and about 7% are dead. After 16 and 24 hours of treatment with pCAP 250 the apoptotic population increases to about 27% and dead cells accumulate to 29% at 16h and 36% after 24h. […] CD95 and Btg-2 expression is elevated up to 6 fold over non-treated cells.

Mut-p53 = assay: Total activity score over combined assays (Table 8); design: scale not given here; settings: for Activity Score: Table 10 summary of activity of the peptides tested; for PCR, activity score / Conformation, activity score: Table 8; for PCR, activity score: head span not shown; for Conformation, activity score: the 14 score columns c4-c17 stand under the heads Conformation, DNA binding, Viability, PCR

Substance | Activity Score (Mut-p53) | further results
LRCLLLLIGRVG [pCAP-24] |  | reactivity of R175H Mut-p53 towards PAb1620 and PAb240 (conformational change) (Mut-p53 (R175H p53)): increased reactivity of R175H Mut-p53 towards PAb1620 and decreased reactivity towards PAb240
myr-RRIRDPRILLLHFD (Myristoyl-RRIRDPRILLLHFD) [pCAP-325] |  | IVIS average ratio to day 0 ([1]; Experiment 3, SW-480): 4.4%; Samples average size ([1]; Experiment 3, SW-480): 0.12; Samples average weight ([1]; Experiment 3, SW-480): 0.10; Number of total regression ([1]; Experiment 3, SW-480, 10 samples per group): 2; log of luminescence intensity mean at day 0 ([1]; day 0 (first day of treatment)): 8.97; average fold change in tumor size (from luminescence) ([1]; day 0 to day 35): 0.043 fold; tumor size decrease ([1]; day 0 to day 35, inferred from log of luminescence intensity mean): 95.6%; log of luminescence intensity mean at day 35 ([1]; day 35): 7.61; size and weight of extracted tumors compared to control peptides ([1]; p-value <0.05): significantly smaller in size and weight
myr-RRLIVRILKLPNPPER (Myristoyl-RRLIVRILKLPNPPER) [pCAP-242] |  | apoptosis and cell death time course compared with pCAP 250 [2]: attenuated and slower; Annexin positive cells ([2]; after 5 hours of treatment): 12%; dead cells ([2]; after 5 hours of treatment): about 7%
pCAP296 (RPADRIRR) | 0 | 
pCAP297 (HDFDPRYRDRR) | 0 | 
pCAP298 (RRIRDPLGNEHE) | 3 | 
pCAP299 (ILQPDFLIRPE) | 2 | 
pCAP300 (RIRRDPDSPLPHPE) | 0 | 
pCAP301 (Myristoyl-IRGRIRIIRRIR) | 12 | 
pCAP302 (LRIEPIRIR) | 6 | 
pCAP303 (IVEFRIRR) | 3 | 
pCAP304 (Myristoyl-RRIRILMFLIGCGRV) | 0 | 
pCAP305 (IREFDPRRIR) | 4 | 
pCAP306 (Myristoyl-RLIRIRILM) | 6 | 
pCAP307 (HDPRIIRIR) | 2 | 
pCAP308 (Myristoyl-RRICRFIRICRVR; cysteine pairing not given here) | 40 | PCR, activity score (Mut-p53): 6
pCAP309 (HPHVILPRIRIRIR) | 0 | 

Substance | Activity Score (Mut-p53) | further results
pCAP310 (RLRCLLLLIGRVGRR) | 4 | 
pCAP311 (EIHTIHLLPERR) | 0 | 
pCAP312 (RRPRIPDYIL) | 3 | 
pCAP313 (Myristoyl-RRREILHPEFRILYE) | 8 | 
pCAP314 (RSTPHIHEFIRR) | 3 | 
pCAP315 (LHFSHIDRR) | 9 | 
pCAP316 (Myristoyl-DIHTIHLPDTHRR) | 7 | 
pCAP317 (RRDIHTIHPFYQ) | 43 | PCR, activity score (Mut-p53): 3; Conformation, activity score (Mut-p53): 5
pCAP318 (RPEFHSFHPIYERR) | 6 | 
pCAP319 (SHDFYPHWMRERIR) | 3 | 
pCAP320 (EPSHPRSRYPRTF) | 0 | 
pCAP321 (RNIIIRDFIHFSHIDR) | 0 | 
pCAP322 (RRIRDPQIK(Myristoyl)LEIHFSHID; not fully specified; printed as RRIRDPQIK-myrLEIHFSHID) | 0 | 
pCAP323 (Myristoyl-DLHTIHIPRDRR) | 0 | 
pCAP324 (SHDFPHREPRPERR) | 0 | 
pCAP325 (Myristoyl-RRIRDPRILLLHFD) | 61 | PCR, activity score (Mut-p53): 6; Conformation, activity score (Mut-p53): 4
pCAP326 (Myristoyl-RRHNAHHSTPHPDDR) | 53 | PCR, activity score (Mut-p53): 4; Conformation, activity score (Mut-p53): 3
